{
  "source": "patent US20200276145A1",
  "about": "“REDUCING SIDE EFFECTS OF SHORT ACTING NO DONORS” (G. POHL-BOSKAMP GMBH & CO. KG, priority 2016, published 2020)",
  "key": {"[1]": {"details": "after oral administration; cited from earlier work"}, "[2]": {"test": "Individual dose titration of sublingual nitroglycerin, side effects (Examples 1 and 2)", "assay_type": "in vivo, human"}, "[3]": {"test": "Phase IIa forced-titration trial of nitroglycerin sublingual powder in PAOD patients, interim analysis of headache (Example 3)", "assay_type": "in vivo, human", "details": "for Headache days (%): of study days corrected by drop-out days", "procedure": "The patients are advised to take the dosages in the morning, noon and evening so that the short acting NO donor is administered in an intermittent manner.\nParticipants report adverse effects during the study with headache being one of the adverse effects.\nThe study has not yet been finalized but an interim analysis regarding headache as an adverse effect of the study drug has been performed (FIG. 2, Table 1-3).\nAt the time point of the interim analysis the study was still blinded, so with regard to patients' reported adverse event headache it could not be distinguished between the frequency of headache in the verum and the placebo group.\nAs the titration of the study medication takes place in the first 3 weeks, the analysis is focused on reported headache in the first three weeks plus in week 4 to also monitor possible late or ongoing side effects.\nThe analysis includes 35 participants so far which are at different time points of the study protocol. In FIG. 1 the individual headache days of the 35 participants are shown. Some participants have already reached the end of the 12-week treatment period and are in the follow-up period, some participants are still on treatment, but all participants […] have surpassed the titration phase and are on the final dosage of 0.7 mg GTN."}, "[4]": {"details": "total of 2453 study days so far"}, "[5]": {"details": "weeks 1-4, of 927 corrected study days"}},
  "note": "Where “and” joins values, the source holds several entries; their conditions need not be identical. Equal entries are not always repeated.",
  "data": [
    {"smiles": "O=[N+]([O-])O[C@@H]1CO[C@H]2[C@@H]1OC[C@@H]2O", "note": "[isosorbide mononitrate]", "values": [
      {"measurement": "Halftime", "setting": "[1]", "value": "around 5 hours"}
    ]},
    {"smiles": "O=[N+]([O-])OCC(CO[N+](=O)[O-])O[N+](=O)[O-]", "note": "[nitroglycerin]", "values": [
      {"measurement": "Side effects", "setting": "[2]; Example 1, final dosage 0.7 mg after weekly increase 0.15-0.3-0.5-0.7 mg", "value": "without side effects"},
      {"measurement": "Side effects", "setting": "[2]; Example 1, person, approximately 0.15 mg GTN TID sublingual powder", "value": "no headache or other known GTN side effects"},
      {"measurement": "Side effects", "setting": "[2]; Example 1, sublingual nitroglycerin in a therapeutic dose, no titration", "value": "severe headache"},
      {"measurement": "Side effects", "setting": "[2]; Example 2, 0.15 mg TID", "value": "no nausea or headache or other known GTN side effects"},
      {"measurement": "Side effects", "setting": "[2]; Example 2, final dosage 0.4 mg TID after weekly increase 0.15-0.3-0.4 mg", "value": "without side effects"},
      {"measurement": "Side effects", "setting": "[2]; Example 2, person, initial dose 0.4 mg sublingual, no titration", "value": "nausea and mild headache"},
      {"measurement": "Remaining share of participant headache days when the 3 participants are excluded", "setting": "[3]; 3 participants with possible chronic headache or migraine excluded", "value": 15, "unit": "%"},
      {"measurement": "Possibly headache related drop-outs", "setting": "[3]; during the titration in the first 4 weeks", "value": "one"},
      {"measurement": "Headache days of the 3 participants with possible chronic headache or migraine background", "setting": "[3]; first 4 weeks", "value": 82, "unit": "days"},
      {"measurement": "Participants in whom the headache lasted more than a week", "setting": "[3]; first 4 weeks", "value": 5, "unit": "participants"},
      {"measurement": "Share of headache days due to the 3 participants with possible chronic headache or migraine background", "setting": "[3]; first 4 weeks", "value": 65, "unit": "%"},
      {"measurement": "Participants with headache on a single day", "setting": "[3]; first 4 weeks, not during the first three days, of 35", "value": 6, "unit": "participants"},
      {"measurement": "Participants with headache that lasted more than one day", "setting": "[3]; first 4 weeks, of 35", "value": 6, "unit": "participants"},
      {"measurement": "Additional participants dropped out due to headache", "setting": "[3]; further course of the therapy", "value": 2, "unit": "participants"},
      {"measurement": "Overall headache frequency in the present study", "setting": "[3]; interim analysis, blinded", "value": "below 30%"},
      {"measurement": "Headache days recorded for the 3 participants with continuous headache", "setting": "[3]; overall study", "value": "209 days and 212 days"},
      {"measurement": "Share of total headache days due to the 3 participants with continuous headache", "setting": "[3]; overall study", "value": 85, "unit": "%"},
      {"measurement": "Participants that have headache during the first days of treatment", "setting": "[3]; starting dose 0.3 mg GTN", "value": 5, "unit": "participants"},
      {"measurement": "Percentage of participants that have headache during the first days of treatment", "setting": "[3]; starting dose 0.3 mg GTN", "value": 14.3, "unit": "%"},
      {"measurement": "Participant headache days recorded so far (overall study)", "setting": "[3]; [4]", "value": "245 days and 251 days"},
      {"measurement": "Percentage of headache days of total study days so far", "setting": "[3]; [4]", "value": 10, "unit": "%"},
      {"measurement": "Participants with possible chronic headache or migraine history", "setting": "[3]; week 1", "value": 3},
      {"measurement": "Headache corrected by participants with possible chronic headache or migraine history (%)", "setting": "[3]; week 1, 0.3 mg GTN", "value": 20, "unit": "%"},
      {"measurement": "Participant headache days corrected by participants with possible chronic headache or migraine history (%)", "setting": "[3]; week 1, 0.3 mg GTN", "value": 7.8, "unit": "%"},
      {"measurement": "Headache (%) of participants", "setting": "[3]; week 1, 0.3 mg GTN, blinded", "value": 28.6, "unit": "%"},
      {"measurement": "Headache days (%)", "setting": "[3]; week 1, 0.3 mg GTN", "value": 15.5, "unit": "%"},
      {"measurement": "Participants with possible chronic headache or migraine history", "setting": "[3]; week 2", "value": 3},
      {"measurement": "Headache corrected by participants with possible chronic headache or migraine history (%)", "setting": "[3]; week 2, 0.5 mg GTN", "value": 11.4, "unit": "%"},
      {"measurement": "Participant headache days corrected by participants with possible chronic headache or migraine history (%)", "setting": "[3]; week 2, 0.5 mg GTN", "value": 4.2, "unit": "%"},
      {"measurement": "Headache (%) of participants", "setting": "[3]; week 2, 0.5 mg GTN, blinded", "value": 20, "unit": "%"},
      {"measurement": "Headache (%) of participants", "setting": "[3]; week 2, 0.5 mg GTN, blinded, listed as GTN", "value": 20.0, "unit": "%"},
      {"measurement": "Headache days (%)", "setting": "[3]; week 2, 0.5 mg GTN", "value": 13.0, "unit": "%"},
      {"measurement": "Change of headache frequency as a result of the increased dosage", "setting": "[3]; week 2, 3 or 4 versus week 1", "value": "did not monitor an increased headache frequency"},
      {"measurement": "Participants with possible chronic headache or migraine history", "setting": "[3]; week 3", "value": 3},
      {"measurement": "Headache corrected by participants with possible chronic headache or migraine history (%)", "setting": "[3]; week 3, 0.7 mg GTN", "value": 5.7, "unit": "%"},
      {"measurement": "Participant headache days corrected by participants with possible chronic headache or migraine history (%)", "setting": "[3]; week 3, 0.7 mg GTN", "value": 3.1, "unit": "%"},
      {"measurement": "Headache (%) of participants", "setting": "[3]; week 3, 0.7 mg GTN, blinded", "value": 14.3, "unit": "%"},
      {"measurement": "Headache days (%)", "setting": "[3]; week 3, 0.7 mg GTN", "value": 12.3, "unit": "%"},
      {"measurement": "Participants with possible chronic headache or migraine history", "setting": "[3]; week 4", "value": 3},
      {"measurement": "Headache corrected by participants with possible chronic headache or migraine history (%)", "setting": "[3]; week 4, 0.7 mg GTN", "value": 0, "unit": "%"},
      {"measurement": "Participant headache days corrected by participants with possible chronic headache or migraine history (%)", "setting": "[3]; week 4, 0.7 mg GTN", "value": 0, "unit": "%"},
      {"measurement": "Headache (%) of participants", "setting": "[3]; week 4, 0.7 mg GTN, blinded", "value": 8.6, "unit": "%"},
      {"measurement": "Headache days (%)", "setting": "[3]; week 4, 0.7 mg GTN", "value": 9.7, "unit": "%"},
      {"measurement": "Headache days during the first 4 weeks", "setting": "[3]; [5]", "value": "118 days and 127 days"},
      {"measurement": "Overall percentage of headache days during the first 4 weeks", "setting": "[3]; [5]", "value": 12.7, "unit": "%"}
    ]}
  ]
}
